Laboratory results as given in patent publication US20100317621A1, “BETA-LACTAMASE INHIBITORS” (priority 2007, published 2010).
Structures can show the parent of a compound that is named as a salt. Where two headings read alike, the source gives them in different places.

Columns and labels:
Assay in all cases: biochemical
CTXM-15 β-lactamase = biological target: T1, CTXM-15 β-lactamase (Escherichia coli, UniProt Q9EXV5); type: biochemical; settings: crude enzyme extract, 10 min preincubation at 37° C., nitrocefin 100 μM, PBS pH 7.0; read-out: CTXM-15 IC50 Range
T1 construct: The β-lactamases were extracted by four cycles of freezing and thawing followed by centrifugation; endogenous in cells; host or cells: Escherichia coli cells containing CTXM-15 (crude freeze-thaw extract)
T1 sequence (Q9EXV5 29-291): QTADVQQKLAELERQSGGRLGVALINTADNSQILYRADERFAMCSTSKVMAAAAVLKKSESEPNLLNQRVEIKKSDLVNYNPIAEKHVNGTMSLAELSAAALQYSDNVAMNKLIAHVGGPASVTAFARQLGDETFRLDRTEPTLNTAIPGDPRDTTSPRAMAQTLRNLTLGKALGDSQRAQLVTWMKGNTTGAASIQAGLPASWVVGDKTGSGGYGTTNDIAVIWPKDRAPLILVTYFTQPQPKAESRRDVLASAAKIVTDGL
Method: (§1) Isolation of β-lactamases. Crude β-lactamase extracts were prepared from 20 ml overnight cultures with shaking. Escherichia coli cells containing SHV-5 or CTXM-15 and Enterobacter cloacae cells containing P99 were further diluted 10-fold and grown to mid-log phase (OD at 600 nm, 0.5-0.8) in Mueller-Hinton II (MH-II) broth at 37° C. The cells were pelleted at 5000 g, washed and resuspended in 2 mL PBS pH 7.0. The β-lactamases were extracted by four cycles of freezing and thawing followed by centrifugation. β-lactamase activity in the extracts was measured with the chromogenic cephalosporin nitrocefin. The amount of protein in each β-lactamase preparation was determined by the bicinchoninic acid (BCA) assay.
(§2) β-lactamase Inhibition. To determine the level of inhibition of β-lactamase enzymes, compounds were diluted in PBS at pH 7.0 to yield concentrations between 100 and 0.005 μM in microtiter plates. An equal volume of diluted enzyme stock was added, and the plates were incubated at 37° C. for 10 min. Nitrocefin solution was then dispensed as substrate into each well at a final concentration of 100 μM, and the plates were immediately read with the kinetic program at 486 nm for 10 min on the SPECTRAMAX® Plus^384 (high-throughput microplate spectrophotometer; Molecular Devices Corp., Sunnyvale, Calif.). Maximum rates of metabolism were then compared to those in control wells (without inhibitors), and percentages of enzyme inhibition were calculated for each concentration of inhibitor. The concentration of inhibitor needed to reduce the initial rate of hydrolysis of substrate by 50% (IC50) was calculated as the residual activity of β-lactamase at 486 nm using the SoftMax Pro 5.0 software (Molecular Devices Corp.).

P99 AmpC β-lactamase = biological target: T2, P99 AmpC β-lactamase (Enterobacter cloacae, UniProt P05364); type: biochemical
T2 construct: The β-lactamases were extracted by four cycles of freezing and thawing followed by centrifugation; endogenous in cells; host or cells: Enterobacter cloacae cells containing P99 (crude freeze-thaw extract)
T2 sequence (P05364 21-381): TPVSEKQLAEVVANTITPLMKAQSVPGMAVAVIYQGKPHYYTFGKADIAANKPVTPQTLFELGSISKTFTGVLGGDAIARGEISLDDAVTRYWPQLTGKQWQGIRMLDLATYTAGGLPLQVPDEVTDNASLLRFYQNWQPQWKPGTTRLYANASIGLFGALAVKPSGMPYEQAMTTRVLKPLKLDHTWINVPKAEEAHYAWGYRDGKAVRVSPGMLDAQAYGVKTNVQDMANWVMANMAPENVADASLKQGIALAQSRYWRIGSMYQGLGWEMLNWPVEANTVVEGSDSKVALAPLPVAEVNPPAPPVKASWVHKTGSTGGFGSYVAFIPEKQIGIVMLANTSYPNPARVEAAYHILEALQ
Method: as §1, §2

SHV-5 β-lactamase = biological target: T3, SHV-5 β-lactamase (Klebsiella pneumoniae, UniProt P0A3M1); type: biochemical, Escherichia coli
T3 construct: The β-lactamases were extracted by four cycles of freezing and thawing followed by centrifugation; endogenous in cells; host or cells: Escherichia coli cells containing SHV-5 (crude freeze-thaw extract)
T3 sequence (P0A3M1 22-286): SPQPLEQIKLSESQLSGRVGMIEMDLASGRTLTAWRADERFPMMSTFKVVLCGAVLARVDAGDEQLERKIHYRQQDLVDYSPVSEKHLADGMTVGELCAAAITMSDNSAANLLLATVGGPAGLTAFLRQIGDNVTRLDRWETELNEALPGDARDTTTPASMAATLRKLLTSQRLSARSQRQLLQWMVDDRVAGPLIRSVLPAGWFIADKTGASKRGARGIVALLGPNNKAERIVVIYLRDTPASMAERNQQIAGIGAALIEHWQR
Method: as §1, §2

[1] = crude enzyme extract, 10 min preincubation at 37° C., nitrocefin 100 μM, PBS pH 7.0, read-out: P99 AmpC IC50 Range
[2] = crude enzyme extract, 10 min preincubation at 37° C., nitrocefin 100 μM, PBS pH 7.0, read-out: SHV-5 IC50 Range

SMILES | IC50 (CTXM-15 β-lactamase) | IC50 (P99 AmpC β-lactamase; [1]) | IC50 (SHV-5 β-lactamase; [2]) | IC50 (P99 AmpC β-lactamase) | IC50 (SHV-5 β-lactamase)
O=C(Cc1cccc(Cl)c1)N[C@@H](Cc1cccc(C(=O)O)c1)B(O)O [Example 3, (1R)-1-(3-Chlorophenylacetylamino)-2-(3-carboxyphenyl)ethyl-1-boronic acid] | < 100 nM | 100 to 1000 nM | < 100 nM |  | 
COc1ccc(OC)c(CC(=O)N[C@@H](Cc2cccc(C(=O)O)c2)B(O)O)c1 [Example 4, (1R)-1-(2,5-Dimethoxyphenylacetylamino)-2-(3-carboxyphenyl)ethyl-1-boronic acid] |  | 100 to 1000 nM | > 1000 nM |  | 
O=C(CC1CCCCC1)N[C@@H](Cc1cccc(C(=O)O)c1)B(O)O [Example 5, (1R)-1-(Cyclohexylacetylamino)-2-(3-carboxyphenyl)ethyl-1-boronic acid] |  | > 1000 nM | > 1000 nM |  | 
O=C(Cc1cc(F)ccc1F)N[C@@H](Cc1cccc(C(=O)O)c1)B(O)O [Example 6, (1R)-1-(2,5-Difluorophenylacetylamino)-2-(3-carboxyphenyl)ethyl-1-boronic acid] |  | 100 to 1000 nM | < 100 nM |  | 
O=C(Cc1cccc(Br)c1)N[C@@H](Cc1cccc(C(=O)O)c1)B(O)O [Example 7, (1R)-1-(3-Bromophenylacetylamino)-2-(3-carboxyphenyl)ethyl-1-boronic acid] |  | 100 to 1000 nM | 100 to 1000 nM |  | 
O=C(Cc1cccc(C(F)(F)F)c1)N[C@@H](Cc1cccc(C(=O)O)c1)B(O)O [Example 8, (1R)-1-(3-Trifluoromethylphenylacetylamino)-2-(3-carboxyphenyl)ethyl-1-boronic acid] | 100 to 1000 nM | > 1000 nM | 100 to 1000 nM |  | 
O=C(Cc1ccc(C(F)(F)F)cc1)N[C@@H](Cc1cccc(C(=O)O)c1)B(O)O [Example 9, (1R)-1-(4-Trifluoromethylphenylacetylamino)-2-(3-carboxyphenyl)ethyl-1-boronic acid] | < 100 nM | 100 to 1000 nM | < 100 nM |  | 
O=C(CCc1cccs1)N[C@@H](Cc1cccc(C(=O)O)c1)B(O)O [Example 10, (1R)-1-(3-thiophene-2-yl-propionylamino)-2-(3-carboxyphenyl)ethyl-1-boronic acid] | 100 to 1000 nM | > 1000 nM | > 1000 nM |  | 
Cc1ccc(C(=O)O)cc1C[C@H](NC(=O)Cc1cccs1)B(O)O [Example 13, (1R)-1-(2-thiophene-2-yl-acetylamino)-2-(5-carboxy-2-methylphenyl)ethyl-1-boronic acid] | 100 to 1000 nM | > 1000 nM | < 100 nM |  | 
Cn1c(CC(=O)N[C@@H](Cc2cccc(C(=O)O)c2)B(O)O)cc2ccccc21 [Example 14] | 100 to 1000 nM | 100 to 1000 nM | < 100 nM |  | 
O=C(Cc1cccc2ccccc12)N[C@@H](Cc1cccc(C(=O)O)c1)B(O)O [Example 15, (1R)-1-(2-naphthalen-1-yl-acetylamino)-2-(3-carboxyphenyl)ethyl-1-boronic acid] |  | > 1000 nM | > 1000 nM |  | 
O=C(Cc1ccc(Br)cc1)N[C@@H](Cc1cccc(C(=O)O)c1)B(O)O [Example 16, (1R)-1-(4-Bromophenylacetylamino)-2-(3-carboxyphenyl)ethyl-1-boronic acid] |  | > 1000 nM | 100 to 1000 nM |  | 
O=C(Cc1cccc(C(=O)O)c1)N[C@@H](Cc1cccc(C(=O)O)c1)B(O)O [Example 17, (1R)-1-(3-Carboxyphenylacetylamino)-2-(3-carboxyphenyl)ethyl-1-boronic acid] |  | > 1000 nM | 100 to 1000 nM |  | 
O=C(Cc1cccs1)N[C@@H](Cc1ccc(Cl)c(C(=O)O)c1)B(O)O [Example 18, (1R)-1-(2-thiophene-2-yl-acetylamino)-2-(3-carboxy-4-chlorophenyl)ethyl-1-boronic acid] |  | 100 to 1000 nM | < 100 nM |  | 
O=C(Cc1ccc(Cl)cc1)N[C@@H](Cc1cccc(C(=O)O)c1)B(O)O [Example 19, (1R)-1-(4-Chlorophenylacetylamino)-2-(3-carboxyphenyl)ethyl-1-boronic acid] | < 100 nM | 100 to 1000 nM | < 100 nM |  | 
O=C(Cc1ccccc1Br)N[C@@H](Cc1cccc(C(=O)O)c1)B(O)O [Example 20, (1R)-1-(2-Bromophenylacetylamino)-2-(3-carboxyphenyl)ethyl-1-boronic acid] |  | 100 to 1000 nM | 100 to 1000 nM |  | 
O=C(Cc1ccc2ccccc2c1)N[C@@H](Cc1cccc(C(=O)O)c1)B(O)O [Example 23, (1R)-1-(2-naphthalen-2-yl-acetylamino)-2-(3-carboxyphenyl)ethyl-1-boronic acid] | < 100 nM | < 100 nM | < 100 nM |  | 
O=C(Cc1ccccc1Cl)N[C@@H](Cc1cccc(C(=O)O)c1)B(O)O [Example 24, (1R)-1-(2-Chlorophenylacetylamino)-2-(3-carboxyphenyl)ethyl-1-boronic acid] | > 1000 nM | 100 to 1000 nM | < 100 nM |  | 
COc1ccc(CC(=O)N[C@@H](Cc2cccc(C(=O)O)c2)B(O)O)cc1 [Example 25, (1R)-1-(4-Methoxyphenylacetylamino)-2-(3-carboxyphenyl)ethyl-1-boronic acid] | < 100 nM | 100 to 1000 nM | < 100 nM |  | 
COc1ccc(CC(=O)N[C@@H](Cc2cccc(C(=O)O)c2)B(O)O)c(Br)c1 [Example 26, (1R)-1-(2-Bromo-4-methoxyphenylacetylamino)-2-(3-carboxyphenyl)ethyl-1-boronic acid] | 100 to 1000 nM | 100 to 1000 nM | 100 to 1000 nM |  | 
O=C(O)COc1cccc(CC(=O)N[C@@H](Cc2cccc(C(=O)O)c2)B(O)O)c1 [Example 27, (1R)-1-(2-(3-carboxymethoxy)phenylacetylamino)-2-(3-carboxyphenyl)ethyl-1-boronic acid] | 100 to 1000 nM | 100 to 1000 nM | < 100 nM |  | 
CN1CCC(Oc2cccc(CC(=O)NC(Cc3cccc(C(=O)O)c3)B(O)O)c2)C1 [Example 28, (1R)-1-(2-[3-(1-methyl-pyrrolidin-3-yloxy)-phenyl]-acetylamino)-2-(3-carboxyphenyl)ethyl-1-boronic acid] | 100 to 1000 nM |  |  | < 100 nM | 100 to 1000 nM
NCCCOc1cccc(CC(=O)N[C@@H](Cc2cccc(C(=O)O)c2)B(O)O)c1 [Example 31, (1R)-1-{2-[3-(3-Amino-propyloxy)-phenyl]-acetylamino}-2-(3-carboxyphenyl)ethyl-1-boronic acid hydrochloride] | 100 to 1000 nM | 100 to 1000 nM | 100 to 1000 nM |  | 
CC(CO)Oc1cccc(CC(=O)N[C@@H](Cc2cccc(C(=O)O)c2)B(O)O)c1 (stereo partly drawn) [Example 32, (1R)-1-{2-[3-(2-Hydroxy-1-methyl-ethoxy)-phenyl]-acetylamino}-2-(3-carboxyphenyl)ethyl-1-boronic acid] | < 100 nM | 100 to 1000 nM | < 100 nM |  | 
O=C(CCCc1cccs1)N[C@@H](Cc1cccc(C(=O)O)c1)B(O)O [Example 35, (1R)-1-(4-Thiophen-2-yl-butyrylamino)-2-(3-carboxyphenyl)ethyl-1-boronic acid] | 100 to 1000 nM | > 1000 nM | 100 to 1000 nM |  | 
O=C(CCC(=NO)c1cccs1)N[C@@H](Cc1cccc(C(=O)O)c1)B(O)O [Example 37, (1R)-1-(4-Hydroxyimino-4-thiophen-2-yl-butyrylamino)-2-(3-carboxyphenyl)ethyl-1-boronic acid] | 100 to 1000 nM | 100 to 1000 nM | > 1000 nM |  | 
COc1ccc(C(=O)CCC(=O)N[C@@H](Cc2cccc(C(=O)O)c2)B(O)O)cc1 [Example 38, (1R)-1-(4-(4-Methoxy-phenyl)-4-oxo-butyrylamino)-2-(3-carboxyphenyl)ethyl-1-boronic acid] | 100 to 1000 nM | 100 to 1000 nM | 100 to 1000 nM |  | 
